Molecules are shown by their SMILES.

human LPA1 receptor, sequence (Q92633 whole entry, the tested form may be a part): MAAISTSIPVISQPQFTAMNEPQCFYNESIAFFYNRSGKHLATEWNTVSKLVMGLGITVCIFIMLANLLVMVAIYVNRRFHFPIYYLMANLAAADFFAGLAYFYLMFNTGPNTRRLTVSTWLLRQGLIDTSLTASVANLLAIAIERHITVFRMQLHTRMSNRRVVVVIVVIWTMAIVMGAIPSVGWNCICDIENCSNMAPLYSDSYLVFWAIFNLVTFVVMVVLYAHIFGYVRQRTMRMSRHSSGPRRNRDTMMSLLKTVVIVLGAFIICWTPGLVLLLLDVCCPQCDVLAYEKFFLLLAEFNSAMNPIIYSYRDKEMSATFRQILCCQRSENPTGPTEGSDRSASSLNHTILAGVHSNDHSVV

The test addresses human LPA1 receptor (Homo sapiens (Human), UniProt Q92633). Description: Beta-arrestin recruitment assay to determine IC50 values for human LPAR1. The following applies: antagonist mode, Tango EDG2-bla U2OS cells, LPA 18:1 500 nM final. The class given is cell-based. An outline of the steps:
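Antagonist IC50 = concentration giving 50% inhibition of maximal LPA response. Read-out is beta-lactamase reporter activity after arrestin-protease recruitment in U2OS cells bearing LPA1-TEV-Gal4-VP16 construct; cells pre-incubated 20 h, 37 °C, 5% CO2.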
Background: Activated receptors often draw arrestin, which recruitment assays turn into a signal.
In the case of `Cc1ccc(NC(=O)C2(c3ccccc3C(C)C)CN(C(=O)NCCC(C)(C)C(=O)O)C2)c(OC(F)F)n1` [Ex 17-19, 4-(3-((2-(difluoromethoxy)-6-methylpyridin-3-yl)carbamoyl)-3-(2-isopropylphenyl)azetidine-1-carboxamido)-2,2-dimethylbutanoic acid], the IC50 (commonly the point on the concentration scale where inhibition reaches its midpoint) is 0.007 µM. In the case of `Cc1ccc(NC(=O)C2(c3ccccc3C(C)C)CN(S(N)(=O)=O)C2)c(OC(C)C)n1` [Ex 15-18, N-(2-isopropoxy-6-methylpyridin-3-yl)-3-(2-isopropylphenyl)-1-sulfamoylazetidine-3-carboxamide], the IC50 was 0.007 µM. Turning to `COC(=O)[C@@H]1C[C@@H]1C(=O)N1CC(C(=O)Nc2ccc(C)nc2OC(F)F)(c2ccccc2C(C)C)C1` [Ex 12-96, methyl (1R,2S)-2-(3-((2-(difluoromethoxy)-6-methylpyridin-3-yl)carbamoyl)-3-(2-isopropylphenyl)azetidine-1-carbonyl)cyclopropane-1-carboxylate], inhibition was half-maximal at 0.034 µM (IC50).

The compound `Cc1ccc(NC(=O)C2(c3ccccc3C(C)C)CN(C(=O)CCOCCOCC(=O)O)C2)c(OC(F)F)n1` [Ex 12-121, 2-(2-(3-(3-((2-(difluoromethoxy)-6-methylpyridin-3-yl)carbamoyl)-3-(2-isopropylphenyl)azetidin-1-yl)-3-oxopropoxy)ethoxy)acetic acid] showed an IC50 of 0.31 µM.

Compound `Cc1ccc(NC(=O)C2(c3ccccc3C(C)C)CN(C(=O)CCC(=O)O)C2)c(OC(F)F)n1` [Ex 12-71, 4-(3-((2-(difluoromethoxy)-6-methylpyridin-3-yl)carbamoyl)-3-(2-isopropylphenyl)azetidin-1-yl)-4-oxobutanoic acid] returned an IC50 of 0.01 µM. Compound `Cc1ccc(NC(=O)C2(c3ccccc3C(C)C)CN(S(=O)(=O)NCC(=O)O)C2)c(OC(F)F)n1` [Ex 15-2, ((3-((2-(difluoromethoxy)-6-methylpyridin-3-yl)carbamoyl)-3-(2-isopropylphenyl)azetidin-1-yl)sulfonyl)glycine] registered an IC50 of 0.007 µM. The result for `Cc1ccc(NC(=O)C2(c3ccccc3C(C)C)CN(CCCC(C)(C)O)C2)c(OC(F)F)n1` [Ex 11-66, N-(2-(difluoromethoxy)-6-methylpyridin-3-yl)-1-(4-hydroxy-4-methylpentyl)-3-(2-isopropylphenyl)azetidine-3-carboxamide] reads 0.014 µM. `Cc1ccc(NC(=O)C2(c3ccccc3C(C)C)CN(C(=O)CCC(O)C(F)(F)F)C2)c(OC(F)F)n1` (stereo not shown) [Ex 12-120, N-(2-(difluoromethoxy)-6-methylpyridin-3-yl)-3-(2-isopropylphenyl)-1-(5,5,5-trifluoro-4-hydroxypentanoyl)azetidine-3-carboxamide]: half-maximal inhibition (IC50) was put at 0.011 µM. To `COC(=O)c1cc(CN2CC(C(=O)Nc3ccc(C)nc3OC(F)F)(c3ccccc3C(C)C)C2)ccn1` [Ex 11-50, methyl 4-((3-((2-(difluoromethoxy)-6-methylpyridin-3-yl)carbamoyl)-3-(2-isopropylphenyl)azetidin-1-yl)methyl)picolinate] belongs 0.047 µM; to `Cc1ccc(NC(=O)C2(c3ccccc3C(C)C)CN(c3nccc(C(=O)O)n3)C2)c(OC(F)F)n1` [Ex 18-15, 2-(3-((2-(difluoromethoxy)-6-methylpyridin-3-yl)carbamoyl)-3-(2-isopropylphenyl)azetidin-1-yl)pyrimidine-4-carboxylic acid], 0.047 µM. For `Cc1ccc(NC(=O)C2(c3ccccc3C(C)C)CN(c3ncc(C#N)cn3)C2)c(OC(F)F)n1` [Ex 18-24, 1-(5-cyanopyrimidin-2-yl)-N-(2-(difluoromethoxy)-6-methylpyridin-3-yl)-3-(2-isopropylphenyl)azetidine-3-carboxamide], the midpoint of inhibition, the IC50, lay at 0.002 µM.

In turn, `Cc1ccc(NC(=O)C2(c3ccccc3C(C)C)CCN(C[C@@H](O)CO)CC2)c(OC(F)F)n1` [Ex 11-19, (R)-N-(2-(difluoromethoxy)-6-methylpyridin-3-yl)-1-(2,3-dihydroxypropyl)-4-(2-isopropylphenyl)piperidine-4-carboxamide] returned an IC50 of 0.014 µM. In turn, `COC(=O)C(C)(C)CCNC(=O)N1CC(C(=O)Nc2ccc(C)nc2OC(F)F)(c2ccccc2C(C)C)C1` [Ex 17-18, methyl 4-(3-((2-(difluoromethoxy)-6-methylpyridin-3-yl)carbamoyl)-3-(2-isopropylphenyl)azetidine-1-carboxamido)-2,2-dimethylbutanoate] registered an IC50 of 0.006 µM. Regarding `Cc1ccc(NC(=O)C2(c3ccccc3C(C)C)CCN(C(=O)NCc3c[nH]cn3)CC2)c(OC(F)F)n1` [Ex 17-3, N1-((1H-imidazol-4-yl)methyl)-N4-(2-(difluoromethoxy)-6-methylpyridin-3-yl)-4-(2-isopropylphenyl)piperidine-1,4-carboxamide], the IC50 was determined as 0.008 µM.

`COC(=O)CCCN1CC(C(=O)Nc2ccc(C)nc2OC(F)F)(c2ccccc2C(C)C)C1` [Ex 11-28, methyl 4-(3-((2-(difluoromethoxy)-6-methylpyridin-3-yl)carbamoyl)-3-(2-isopropylphenyl)azetidin-1-yl)butanoate] had an IC50 of 0.012 µM. Take `Cc1ccc(NC(=O)C2(c3ccccc3C(C)C)CN(C(=O)CN3CCC(C(=O)O)CC3)C2)c(OC(F)F)n1` [Ex 48, 1-(2-(3-((2-(difluoromethoxy)-6-methylpyridin-3-yl)carbamoyl)-3-(2-isopropylphenyl)azetidin-1-yl)-2-oxoethyl)piperidine-4-carboxylic acid]: the IC50 was found to be 0.103 µM. The result for `Cc1ccc(NC(=O)C2(c3ccccc3C(C)C)CN(CCC(C)(C)C(=O)NS(C)(=O)=O)C2)c(OC(F)F)n1` [Ex 53, N-(2-(difluoromethoxy)-6-methylpyridin-3-yl)-1-(3,3-dimethyl-4-(methylsulfonamido)-4-oxobutyl)-3-(2-isopropylphenyl)azetidine-3-carboxamide] reads 0.017 µM; that for `Cc1ccc(NC(=O)C2(c3ccccc3C(C)C)CN(C[C@@H](O)CN)C2)c(OC(F)F)n1` [Ex 11-83, (S)-1-(3-amino-2-hydroxypropyl)-N-(2-(difluoromethoxy)-6-methylpyridin-3-yl)-3-(2-isopropylphenyl)azetidine-3-carboxamide], 0.02 µM; that for `Cc1ccc(NC(=O)C2(c3ccccc3C(C)C)CN(C3COC3)C2)c(OC(F)F)n1` [Ex 11-20, N-(2-(difluoromethoxy)-6-methylpyridin-3-yl)-3-(2-isopropylphenyl)-1-(oxetan-3-yl)azetidine-3-carboxamide], 0.006 µM.

Turning to `Cc1ccc(NC(=O)C2(c3ccccc3C(C)C)CN(S(=O)(=O)CCC(=O)OCc3ccccc3)C2)c(OC(F)F)n1` [Ex 13-4, Benzyl 3-((3-((2-(difluoromethoxy)-6-methylpyridin-3-yl)carbamoyl)-3-(2-isopropylphenyl)azetidin-1-yl)sulfonyl)propanoate], the IC50 stood at 0.01 µM.

In turn, `COC(=O)CCC(=O)N1CC(C(=O)Nc2ccc(C)nc2OC(C)C)(c2ccccc2C(C)C)C1` [Ex 12-67, methyl 4-(3-((2-isopropoxy-6-methylpyridin-3-yl)carbamoyl)-3-(2-isopropylphenyl)azetidin-1-yl)-4-oxobutanoate] displayed an IC50 of 0.075 µM. In turn, `Cc1ccc(NC(=O)C2(c3ccccc3C(C)C)CN(C(=O)CCC(=O)NS(C)(=O)=O)C2)c(OC(F)F)n1` [Ex 12-119, N-(2-(difluoromethoxy)-6-methylpyridin-3-yl)-3-(2-isopropylphenyl)-1-(4-(methylsulfonamido)-4-oxobutanoyl)azetidine-3-carboxamide] returned an IC50 of 0.035 µM.

Values taken from patent US12344597B2, “Alkoxy-substituted pyridinyl derivatives as LPA1 receptor antagonists and their use in the treatment of fibrosis” (IDORSIA PHARMACEUTICALS LTD, priority 2018, dated 2025).
